Test results published in ChEMBL document CHEMBL1131216, “Anhydrolide macrolides. 2. Synthesis and antibacterial activity of 2,3-anhydro-6-O-methyl 11,12-carbazate erythromycin A analogues” (1998).
≈ marks a conversion by molar mass, not a printed value.

Assays:
Format in all cases: functional
Streptococcus pyogenes [1] = assay: In vitro antibacterial activity of 930 strain of Gram positive bacteria Streptococcus pyogenes
Streptococcus pyogenes [2] = assay: In vitro antibacterial activity of EES61 strain of Gram positive bacteria Streptococcus pyogenes
Streptococcus pneumoniae [3] = assay: In vitro antibacterial activity of 5979 strain of Gram positive bacteria Streptococcus pneumoniae
Staphylococcus aureus [4] = assay: In vitro antibacterial activity of A5177 strain of Gram positive bacteria Staphylococcus aureus
Haemophilus influenzae = assay: In vitro antibacterial activity of DILL strain of Gram negative bacteria Haemophilus influenzae
Staphylococcus aureus [5] = assay: In vitro antibacterial activity of A-5278 strain of Gram positive bacteria Staphylococcus aureus
Streptococcus pneumoniae [6] = assay: In vitro antibacterial activity of ATCC 6303 strain of Gram positive bacteria Streptococcus pneumoniae
Streptococcus pneumoniae [7] = assay: In vitro antibacterial activity of 5649 strain of Gram positive bacteria Streptococcus pneumoniae
Staphylococcus aureus [8] = assay: In vitro antibacterial activity of 6538P strain of Gram positive bacteria Staphylococcus aureus
Streptococcus pyogenes [9] = assay: In vitro antibacterial activity of PIU2584 strain of Gram positive bacteria Streptococcus pyogenes

MIC (Streptococcus pyogenes [1]) [mg/L] | MIC (Streptococcus pyogenes [2]) [mg/L] | MIC (Streptococcus pneumoniae [3]) [mg/L] | MIC (Staphylococcus aureus [4]) [mg/L] | MIC (Haemophilus influenzae) [mg/L] | MIC (Staphylococcus aureus [5]) [mg/L] | MIC (Streptococcus pneumoniae [6]) [mg/L] | MIC (Streptococcus pneumoniae [7]) [mg/L] | MIC (Staphylococcus aureus [8]) [mg/L] | MIC (Streptococcus pyogenes [9]) [mg/L] | Compound
> 64 | 0.004 (≈ 0.00536 µM) | > 64 | 0.1 (≈ 0.134 µM) | 4 (≈ 5.36 µM) | > 100 | 0.004 (≈ 0.00536 µM) | 1 (≈ 1.34 µM) | 0.2 (≈ 0.268 µM) | 0.25 (≈ 0.335 µM) | CC[C@H]1OC(=O)/C(C)=C/[C@H](C)[C@@H](O[C@@H]2O[C@H](C)C[C@H](N(C)C)[C@H]2O)[C@@](C)(OC)C[C@@H](C)C(=O)[C@H](C)[C@H]2N(NCCCc3ccc(O)cc3)C(=O)O[C@]12C
> 128 | 0.06 (≈ 0.0762 µM) | > 128 | 0.39 (≈ 0.496 µM) | 8 (≈ 10.2 µM) | > 100 | 0.06 (≈ 0.0762 µM) | 2 (≈ 2.54 µM) | 0.39 (≈ 0.496 µM) | 2 (≈ 2.54 µM) | CC[C@H]1OC(=O)/C(C)=C/[C@H](C)[C@@H](O[C@@H]2O[C@H](C)C[C@H](N(C)C)[C@H]2O)[C@@](C)(OC)C[C@@H](C)C(=O)[C@H](C)[C@H]2N(NCCCc3ccc(NC(C)=O)cc3)C(=O)O[C@]12C
16 (≈ 20.9 µM) | 0.125 (≈ 0.164 µM) | 16 (≈ 20.9 µM) | 0.05 (≈ 0.0654 µM) | 16 (≈ 20.9 µM) | 25 (≈ 32.7 µM) | 0.03 (≈ 0.0392 µM) | 1 (≈ 1.31 µM) | 0.1 (≈ 0.131 µM) | 1 (≈ 1.31 µM) | CC[C@H]1OC(=O)/C(C)=C/[C@H](C)[C@@H](O[C@@H]2O[C@H](C)C[C@H](N(C)C)[C@H]2O)[C@@](C)(OC)C[C@@H](C)C(=O)[C@H](C)[C@H]2N(NCCCc3ccc(Cl)cc3)C(=O)O[C@]12C
64 (≈ 89.6 µM) | 16 (≈ 22.4 µM) | 64 (≈ 89.6 µM) | 50 (≈ 70 µM) | > 64 | 100 (≈ 140 µM) | 16 (≈ 22.4 µM) | 64 (≈ 89.6 µM) | 100 (≈ 140 µM) | 64 (≈ 89.6 µM) | CC[C@H]1OC(=O)/C(C)=C/[C@H](C)[C@@H](O[C@@H]2O[C@H](C)C[C@H](N(C)C)[C@H]2O)[C@@](C)(OC)C[C@@H](C)[C@H]2[C@H](C)[C@H]3N(C(=O)O[C@]13C)N2CCCc1ccccc1
16 (≈ 20.9 µM) | 0.25 (≈ 0.327 µM) | 32 (≈ 41.9 µM) | 0.39 (≈ 0.51 µM) | 32 (≈ 41.9 µM) | 50 (≈ 65.4 µM) | 0.25 (≈ 0.327 µM) | 2 (≈ 2.62 µM) | 0.39 (≈ 0.51 µM) | 1 (≈ 1.31 µM) | CC[C@H]1OC(=O)/C(C)=C/[C@H](C)[C@@H](O[C@@H]2O[C@H](C)C[C@H](N(C)C)[C@H]2O)[C@@](C)(OC)C[C@@H](C)C(=O)[C@H](C)[C@H]2N(NCCCc3cccc(Cl)c3)C(=O)O[C@]12C
64 (≈ 83.9 µM) | 0.004 (≈ 0.00524 µM) | > 128 | 0.01 (≈ 0.0131 µM) | 2 (≈ 2.62 µM) | > 100 | 0.03 (≈ 0.0393 µM) | 0.5 (≈ 0.655 µM) | 0.02 (≈ 0.0262 µM) | 0.25 (≈ 0.328 µM) | CC[C@H]1OC(=O)/C(C)=C/[C@H](C)[C@@H](O[C@@H]2O[C@H](C)C[C@H](N(C)C)[C@H]2O)[C@@](C)(OC)C[C@@H](C)C(=O)[C@H](C)[C@H]2N(NC/C=C/c3ccc([N+](=O)[O-])o3)C(=O)O[C@]12C
> 128 | 0.03 (≈ 0.0418 µM) | > 128 | 0.1 (≈ 0.139 µM) | 4 (≈ 5.57 µM) | > 100 | 0.03 (≈ 0.0418 µM) | 1 (≈ 1.39 µM) | 0.2 (≈ 0.279 µM) | 0.5 (≈ 0.696 µM) | CC[C@H]1OC(=O)/C(C)=C/[C@H](C)[C@@H](O[C@@H]2O[C@H](C)C[C@H](N(C)C)[C@H]2O)[C@@](C)(OC)C[C@@H](C)C(=O)[C@H](C)[C@H]2N(NCc3cccc(O)c3)C(=O)O[C@]12C
> 64 | 0.004 (≈ 0.00512 µM) | > 64 | 0.1 (≈ 0.128 µM) | 2 (≈ 2.56 µM) | > 100 | 0.004 (≈ 0.00512 µM) | 1 (≈ 1.28 µM) | 0.2 (≈ 0.256 µM) | 0.5 (≈ 0.64 µM) | CC[C@H]1OC(=O)/C(C)=C/[C@H](C)[C@@H](O[C@@H]2O[C@H](C)C[C@H](N(C)C)[C@H]2O)[C@@](C)(OC)C[C@@H](C)C(=O)[C@H](C)[C@H]2N(NCCCc3ccnc4ccccc34)C(=O)O[C@]12C
> 64 | 0.03 (≈ 0.0395 µM) | > 64 | 0.78 (≈ 1.03 µM) | 4 (≈ 5.27 µM) | > 100 | 0.125 (≈ 0.165 µM) | 1 (≈ 1.32 µM) | 0.78 (≈ 1.03 µM) | 2 (≈ 2.64 µM) | CC[C@H]1OC(=O)/C(C)=C/[C@H](C)[C@@H](O[C@@H]2O[C@H](C)C[C@H](N(C)C)[C@H]2O)[C@@](C)(OC)C[C@@H](C)C(=O)[C@H](C)[C@H]2N(NCc3ccc(NC(C)=O)cc3)C(=O)O[C@]12C
64 (≈ 82.6 µM) | 0.004 (≈ 0.00516 µM) | 128 (≈ 165 µM) | 0.2 (≈ 0.258 µM) | 8 (≈ 10.3 µM) | > 100 | 0.004 (≈ 0.00516 µM) | 0.25 (≈ 0.323 µM) | 0.2 (≈ 0.258 µM) | 0.25 (≈ 0.323 µM) | CC[C@H]1OC(=O)/C(C)=C/[C@H](C)[C@@H](O[C@@H]2O[C@H](C)C[C@H](N(C)C)[C@H]2O)[C@@](C)(OC)C[C@@H](C)C(=O)[C@H](C)[C@H]2N(NCCCc3cccc([N+](=O)[O-])c3)C(=O)O[C@]12C
